From paper PMC7290078, “Agonist bias and agonist‐dependent antagonism at corticotrophin releasing factor receptors” (Pharmacology Research & Perspectives, 2020)
No end group written: not given here.

How the values were obtained:
Format in all cases: cell-based
[1] = target: T1, CRF1 receptor (hCRF1α) (Homo sapiens, UniProt P34998); experiment: ERK1/2 phosphorylation (AlphaLISA Surefire Ultra) in Cos7 cells transfected with hCRF1α
T1 construct: host or cells: Cos7 cells, transient transfection (PEI), pcDNA3.0/3.1 vector
T1 sequence (P34998 24-415): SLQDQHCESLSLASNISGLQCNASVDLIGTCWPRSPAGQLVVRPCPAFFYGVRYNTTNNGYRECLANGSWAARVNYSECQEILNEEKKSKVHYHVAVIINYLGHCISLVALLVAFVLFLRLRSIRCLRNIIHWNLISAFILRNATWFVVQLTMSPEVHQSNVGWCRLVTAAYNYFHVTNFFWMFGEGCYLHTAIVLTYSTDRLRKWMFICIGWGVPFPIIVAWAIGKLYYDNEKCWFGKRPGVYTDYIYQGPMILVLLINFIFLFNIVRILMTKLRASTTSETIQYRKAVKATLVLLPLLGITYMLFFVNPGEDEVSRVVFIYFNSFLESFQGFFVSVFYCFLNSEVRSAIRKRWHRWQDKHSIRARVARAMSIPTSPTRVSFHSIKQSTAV
Source text: (§1) Plasmids containing hCRF1α and hCRF2α (GenBank accession numbers AY457172 and AY449734) were obtained from the cDNA Resource Centre (Bloomsburg University) and are referred to as CRF1 and CRF2 in this manuscript. Hemagglutinin (HA) epitope‐tagged human Calcitonin (CT) receptor (CT(a) splice variant) and myc‐tagged human RAMP1 were used as described previously. ^27 HA‐tagged human calcitonin receptor‐like receptor (CLR), N‐terminal FLAG‐tagged human RAMP3 and N‐terminal myc‐tagged human RAMP3 were a gift from Professor David Poyner (Aston University) and Professor Patrick Sexton (Monash University), respectively. N‐terminal FLAG‐tagged human RAMP2 was used as described previously. ^28 All receptors and RAMPs were cloned in pcDNA3.0 or pcDNA3.1 plasmid vectors. […]
(§2) Cos7, HEK‐293S, and HEK‐293T cells were cultured as described previously. ^28 , ^29 Cos7 cells were originally supplied by the ATCC to Associate Professor Nigel Birch (University of Auckland). […] For transfection, cells were counted (Countess CounterTM; Life Technologies) and plated at a density of 20 000 cells per well in 96‐well plates. […]
The AlphaLISA Surefire Ultra extracellular signal‐regulated kinase 1/2 (ERK1/2) phosphorylation (pERK1/2) assay kit (PerkinElmer Life and Analytical Sciences) was used to measure pERK1/2 in cell lysates after agonist stimulation. […] Samples were read using an Envision plate reader (PerkinElmer). […]

[2] = target: T2, CRF2 receptor (hCRF2α) (Homo sapiens, UniProt Q13324); experiment: ERK1/2 phosphorylation (AlphaLISA Surefire Ultra) in Cos7 cells transfected with hCRF2α
T2 construct: host or cells: Cos7 cells, transient transfection (PEI), pcDNA3.0/3.1 vector
T2 sequence (Q13324 1-411): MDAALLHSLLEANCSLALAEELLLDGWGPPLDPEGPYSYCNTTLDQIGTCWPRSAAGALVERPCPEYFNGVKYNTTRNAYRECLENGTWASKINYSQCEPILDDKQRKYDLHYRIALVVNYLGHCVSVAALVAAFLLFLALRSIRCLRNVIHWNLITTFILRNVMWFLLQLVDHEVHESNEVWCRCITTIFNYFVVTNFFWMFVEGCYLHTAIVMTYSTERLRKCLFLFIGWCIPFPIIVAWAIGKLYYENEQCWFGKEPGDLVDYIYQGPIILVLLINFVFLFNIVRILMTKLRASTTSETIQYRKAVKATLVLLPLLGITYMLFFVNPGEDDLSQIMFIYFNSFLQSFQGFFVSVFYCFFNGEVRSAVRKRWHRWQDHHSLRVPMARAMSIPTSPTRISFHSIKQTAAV
Source text: Plasmids containing hCRF1α and hCRF2α (GenBank accession numbers AY457172 and AY449734) were obtained from the cDNA Resource Centre (Bloomsburg University) and are referred to as CRF1 and CRF2 in this manuscript. Hemagglutinin (HA) epitope‐tagged human Calcitonin (CT) receptor (CT(a) splice variant) and myc‐tagged human RAMP1 were used as described previously. ^27 HA‐tagged human calcitonin receptor‐like receptor (CLR), N‐terminal FLAG‐tagged human RAMP3 and N‐terminal myc‐tagged human RAMP3 were a gift from Professor David Poyner (Aston University) and Professor Patrick Sexton (Monash University), respectively. N‐terminal FLAG‐tagged human RAMP2 was used as described previously. ^28 All receptors and RAMPs were cloned in pcDNA3.0 or pcDNA3.1 plasmid vectors. All plasmid inserts were sequenced at the Centre for Genomics, Proteomics and Metabolomics (University of Auckland) and the sequences were verified prior to use.
Cos7, HEK‐293S, and HEK‐293T cells were cultured as described previously. ^28 , ^29 Cos7 cells were originally supplied by the ATCC to Associate Professor Nigel Birch (University of Auckland). HEK‐293S cells were a gift from Professor David Poyner (Aston University) and HEK‐293T cells a gift from Professor John Taylor (University of Auckland). Briefly, all cell lines were cultured in Dulbecco's Modified Eagle Medium (DMEM) supplemented with 8% heat inactivated fetal bovine serum (FBS) and maintained in a humidified incubator at 37°C with 5% CO2. For transfection, cells were counted (Countess CounterTM; Life Technologies) and plated at a density of 20 000 cells per well in 96‐well plates. The cells were transiently transfected 48 hours prior to assaying using polyethylenimine (PEI), as described previously. ^28 , ^29 In all experiments a total of 0.25 μg DNA was transfected per well. In the majority of experiments 0.25 μg DNA of receptor‐containing plasmid or the pcDNA3.1 plasmid without an insert was used. For experiments involving RAMPs, 0.125 μg of receptor DNA and 0.125 μg of RAMP‐containing plasmid DNA were transfected to give a 1:1 ratio of receptor to RAMP. Where the RAMP or receptor were transfected alone, the ratio of DNA was made up with the pcDNA3.1 plasmid.
The AlphaLISA Surefire Ultra extracellular signal‐regulated kinase 1/2 (ERK1/2) phosphorylation (pERK1/2) assay kit (PerkinElmer Life and Analytical Sciences) was used to measure pERK1/2 in cell lysates after agonist stimulation. For these assays 20% FBS was used as a positive control. Following peptide stimulation at 37°C for 0‐30 minutes with 100 nmol/L agonist (time courses) or 7 minutes with media alone or 1 pmol/L to 1 µmol/L agonist, media was removed and 20 µL of lysis buffer added to each well. Plates were shaken at room temperature for 10 minutes. Each sample was then transferred to a 384‐well optiplate and pERK1/2 measurement performed as per the manufacturer's instructions. Samples were read using an Envision plate reader (PerkinElmer).
In all experiments the position of peptides and antagonists (pharmacology) or transfected receptors (ELISAs) on assay plates was randomized during each independent experiment, which are independent biological replicates. In all cases, duplicate, triplicate, or quadruplicate technical replicates were conducted for each independent experiment. For transfected cell experiments, each independent experiment involved plating cells from a distinct passage, separate transient transfection and separate signaling or ELISA assays, constituting experimental n. For ERK1/2 and IP1 signaling pathways, time‐course experiments were first conducted with a saturating concentration of UCN1 to determine the optimal time to conduct concentration‐response experiments. Concentration‐response experiments were then conducted with the same experimental design for cAMP, ERK1/2, and IP1 pathways. […] All group sizes were designed to be equal at n = 5 independent experiments.

[3] = system: calcitonin receptor; experiment: Antagonism of calcitonin-mediated IP1 accumulation in Cos7 cells expressing the human calcitonin receptor; conditions: 100 µmol/L; n = 3
Source text: as §1, with “respectively.” for “respectively. N‐terminal FLAG‐tagged human RAMP2 was used as described previously. ^28 All receptors and RAMPs were cloned in pcDNA3.0 or pcDNA3.1 plasmid vectors.”
as §2
The IP‐one Gq assay kit (Cisbio) was used to quantify accumulated myo‐inositol‐1‐phosphate (IP1), a by‐product of IP3 produced after receptor‐mediated Gαq activation in Cos7 and HEK‐293S cells. […] Fifteen microliters of sample was then transferred to a 384‐well optiplate and read by an Envision plate reader (PerkinElmer). IP1 concentrations were calculated from a standard curve generated in duplicate. […]

For “IVLSLDVPIGLLQILLEQARARAAREQATTNARILARVGHC-NH2 (C-terminus assumed) [UCN2]”, the “concentration‐dependent increase in pERK1/2” value ([1]; CRF1 receptor) was “not UCN2 and UCN3 exhibited a concentration‐dependent increase”, the “ability to produce pERK1/2, comparison of peptides” value ([2]; CRF2 receptor) was “no significant difference” and the “concentration‐dependent increase in pERK1/2” value ([2]; CRF2 receptor) was “concentration‐dependent increases”. The Hill slope ([2]; pERK1/2, CRF2 receptor) was 0.23, the “Δlog(τ/K A) (relative efficacy)” value ([2]; pERK1/2, hCRF2α, reference agonist UCN1, mean ± SEM, n = 5) was −0.19 ± 0.42 and the “ΔΔlog(τ/K A) (signaling bias)” value ([2]; pERK1/2 relative to cAMP, hCRF2α, reference agonist UCN1, mean ± SEM, n = 5) was 0.36 ± 0.46.
“DNPSLSIDLTFHLLRTLLELARTQSQRERAEQNRIIFDSV-NH2 [UCN1]” gave an EC50 ([1]; pERK1/2, hCRF1α, Cos7, 7 min at 37°C, 1 pmol/L to 1 µmol/L agonist, mean ± SEM, n = 5) of 22.9 nM and an EC50 ([2]; pERK1/2, hCRF2α, Cos7, 7 min at 37°C, 1 pmol/L to 1 µmol/L agonist, mean ± SEM, n = 5) of 5.62 nM.
With `CCC(CC)Nc1cc(C)nc(Oc2c(C)cc(C)cc2C)c1C` [CP‐376,395] the “effect on IP1 accumulation at the calcitonin receptor” value [3] was “no effect on IP1 accumulation at the calcitonin receptor”.
